The Ki is a dissociation constant, usually derived from enzyme kinetics or from competition with a known ligand.

This experiment addresses purified human Factor XIa (Homo sapiens (Human), UniProt P03951). The experiment in a line: Factor XIa Assay. The experiment is classed as biochemical. Conditions: substrate Z-Gly-Pro-Arg-AFC; value printed in the compound table of Example 12; read-out: FXIa Ki. The procedure: The effectiveness of a compound of the present invention as an inhibitor of Coagulation Factor XIa can be determined using a relevant purified serine protease, and an appropriate synthetic substrate. The rate of hydrolysis of the chromogenic or fluorogenic substrate by the relevant serine protease was measured both in the absence and presence of compounds of the present invention. Assays were conducted at room temperature or at 37° C. […] A decrease in the rate of fluorescence change in the presence of inhibitor is indicative of enzyme inhibition. Such methods are known to one skilled in the art. The results of this assay are expressed as the inhibitory constant, Ki.
Factor XIa determinations were made in 50 mM HEPES buffer at pH 7.4 containing 150 mM NaCl, 5 mM CaCl2, and 0.1% PEG 8000 (polyethylene glycol; JT Baker or Fisher Scientific).
Times required to achieve equilibration between enzyme and inhibitor were determined in control experiments. Initial velocities of product formation in the absence (Vo) or presence of inhibitor (Vi) were measured. […]

purified human Factor XIa, sequence (P03951 388-625): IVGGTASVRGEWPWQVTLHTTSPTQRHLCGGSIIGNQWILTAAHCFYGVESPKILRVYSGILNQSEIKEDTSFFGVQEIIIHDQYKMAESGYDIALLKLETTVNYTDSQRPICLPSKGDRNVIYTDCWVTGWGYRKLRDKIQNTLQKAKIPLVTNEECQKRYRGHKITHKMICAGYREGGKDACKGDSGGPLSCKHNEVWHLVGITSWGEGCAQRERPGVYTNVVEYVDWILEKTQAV
purified human Factor XIa, sequence (P03951 19-387 partner): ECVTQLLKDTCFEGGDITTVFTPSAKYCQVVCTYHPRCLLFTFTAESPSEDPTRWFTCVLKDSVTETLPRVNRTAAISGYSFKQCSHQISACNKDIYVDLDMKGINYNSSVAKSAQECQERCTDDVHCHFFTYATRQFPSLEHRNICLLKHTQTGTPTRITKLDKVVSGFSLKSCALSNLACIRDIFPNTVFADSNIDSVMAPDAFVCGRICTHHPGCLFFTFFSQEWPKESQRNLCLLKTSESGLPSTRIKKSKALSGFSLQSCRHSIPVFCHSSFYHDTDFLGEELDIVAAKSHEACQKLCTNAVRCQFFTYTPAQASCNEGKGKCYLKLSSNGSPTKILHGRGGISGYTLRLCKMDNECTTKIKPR

`O=C(O)c1ccc(-c2cnc(C3CCc4cc(-c5cc(Cl)ccc5-n5cnnn5)c[n+]([O-])c43)[nH]2)s1` (stereo not shown) [Example 12, 5-(2-{3-[5-chloro-2-(1H-tetrazol-1-yl)phenyl]-1-oxido-6,7-dihydro-5H-cyclopenta[b]pyridin-7-yl}-1H-imidazol-5-yl)thiophene-2-carboxylic acid]: the inhibitory constant (Ki) stood at 3.08 nM.

For the origin of these results see patent US10081617B2, “Factor XIa inhibitors” (MERCK SHARP & DOHME CORP., priority 2015, dated 2018).
